# Patent publication US20250161314A1, “METHOD FOR TREATMENT OR IMPROVEMENT OF NON-ALCOHOLIC FATTY LIVER DISEASE AND OBESITY BY LUMICHROME” (CATHAY GENERAL HOSPITAL, priority 2023, published 2025)
# Entries after “also recorded” stand apart in the source; their conditions may differ.
# What was measured:
# Assay type in all cases: in vivo
# [1] = system: C57BL/6 male mice; test: Body size and liver appearance of mice after high-fat diet and lumichrome; details: HFD mice; for liver appearance (fatty liver): from 21th week of 32 weeks
# Description: (§1) The serum was further analyzed by a dry chemistry auto analyzer (DRI-CHEM NX500i, Fujifilm, Tokyo, Japan) to measure the following blood biochemical values: AST, ALT and LDH. • (4) The mice in all groups were eventually sacrificed by excessive anesthesia, and both the epididymal fat and liver thereof were collected for a weight measurement, wherein the liver was divided into three parts, and a first part thereof, the first liver tissue, was further tested to determine the lipid amount in the liver by a lipid extraction kit (Chloroform-Free) (ab211044, Abeam, Cambridge, UK). • (5) A second part of the liver, the second liver tissue, was soaked in 4% formaldehyde (10% formalin) for frozen section, and the obtained liver tissue section was further subjected to (1) H/E staining and (2) Oil red O (ORO) staining for lipids (Bio-check laboratories, Taipei, Taiwan). • (6) A third part of the liver, the third liver tissue, was subjected to mRNA extraction, and the extracted mRNA was further subjected to quantitative polymerase chain reaction (qPCR). Further, (1) by qPCR with the primers of SEQ ID NO:1 and SEQ ID NO:2, the relative mRNA expression level of Acta2, which relates to liver fibrosis, in the liver in all groups was determined. (2) by qPCR with the primers of SEQ ID NO:3 and SEQ ID NO:4, the relative mRNA expression level of CD36, which affects fat uptake by liver cells, in all groups was determined; and (3) by qPCR with the primers of SEQ ID NO:5 and SEQ ID NO:6, the relative mRNA expression level of FABP1, which affects fat uptake by liver cells, in all groups was determined.
# [2] = system: C57BL/6 male mice; test: Epididymal fat weight, liver weight and lipid amount in the liver; details: HFD mice
# Description: as §1
# (§2) The present invention used a statistic and graphing software (prism ver. 6) for data analysis. The data of the numerical mean±standard deviation (SD) of the independent samples in all six groups were firstly obtained, and further subjected to One-way ANOVA for statistics. The post-hoc test was Tukey multiple comparison test. The differences between the groups were analyzed separately, and a p value less than 0.05 indicated a statistically significant difference.
# [3] = system: CD36; test: qPCR relative mRNA expression level of CD36 in the liver; details: HFD mice
# Description: as §1, with “(2) by qPCR with the primers of SEQ ID NO:3 and SEQ ID NO:4, the relative mRNA expression level of CD36, which affects fat uptake by liver cells, in all groups was determined; and (3) by qPCR with the primers of SEQ ID NO:5 and SEQ ID NO:6, the relative mRNA expression level of FABP1, which affects fat uptake by liver cells, in all groups was determined.” left out
# [4] = system: FABP1; test: qPCR relative mRNA expression level of FABP1 in the liver; details: HFD mice
# Description: as §1, with “(2) by qPCR with the primers of SEQ ID NO:3 and SEQ ID NO:4, the relative mRNA expression level of CD36, which affects fat uptake by liver cells, in all groups was determined; and (3) by qPCR with the primers of SEQ ID NO:5 and SEQ ID NO:6, the relative mRNA expression level of FABP1, which affects fat uptake by liver cells, in all groups was determined.” left out
# [5] = system: C57BL/6 male mice; test: Serum blood biochemical values AST, ALT and LDH by dry chemistry auto analyzer; details: HFD mice
# Description: as §1, §2
# [6] = system: Acta2; test: qPCR relative mRNA expression level of Acta2 in the liver; details: HFD mice
# Description: as §1, with “(2) by qPCR with the primers of SEQ ID NO:3 and SEQ ID NO:4, the relative mRNA expression level of CD36, which affects fat uptake by liver cells, in all groups was determined; and (3) by qPCR with the primers of SEQ ID NO:5 and SEQ ID NO:6, the relative mRNA expression level of FABP1, which affects fat uptake by liver cells, in all groups was determined.” left out
# [7] = system: C57BL/6 male mice; test: Weekly weight measurement (weight gain) of high-fat diet mice; details: HFD mice, 12 weeks
# [8] = system: C57BL/6 male mice; test: Grip strength test by grip strength meter; details: lumichrome 0.8 or 4 mg/kg/day oral gavage
# [9] = system: C57BL/6 male mice; test: Liver sections, H/E staining and Oil red O staining for lipid droplets; details: HFD mice, H/E and ORO staining
# Description: as §1, with “(2) by qPCR with the primers of SEQ ID NO:3 and SEQ ID NO:4, the relative mRNA expression level of CD36, which affects fat uptake by liver cells, in all groups was determined; and (3) by qPCR with the primers of SEQ ID NO:5 and SEQ ID NO:6, the relative mRNA expression level of FABP1, which affects fat uptake by liver cells, in all groups was determined.” left out
# [10] = lumichrome high dose 4 mg/kg/day oral gavage
# [11] = lumichrome low dose 0.8 mg/kg/day oral gavage
# [12] = lumichrome high dose 4 mg/kg/day oral gavage, 4 mg/kg/day
compound,measurement,setting,value
Cc1cc2nc3[nH]c(=O)[nH]c(=O)c3nc2cc1C [lumichrome],body size of mice,[1]; [10],more obvious efficacy to ameliorate the body size increase of mice
same,liver appearance (fatty liver),[1]; [10],improve the appearance of a fatty liver to regain a blood red color
same,body size of mice,[1]; [11],inhibit the increase of the body size of mice
same,liver appearance (fatty liver),[1]; [11],improve the appearance of a fatty liver and regain a red color
same,epididymal fat weight,[2]; [10],lower than those of the High-fat diet group
same,lipid amount in the liver,[2]; [10],lower than those of the High-fat diet group
same,liver weight,[2]; [10],lower than those of the High-fat diet group
same,epididymal fat weight,[2]; [11],lower than those of the High-fat diet group
same,liver weight,[2]; [11],lower than those of the High-fat diet group
same,relative mRNA expression level of CD36 in the liver,[3]; [10],less mRNA expression of CD36 and FABP1 than that of the High-fat diet group
same,relative mRNA expression level of CD36 in the liver,[3]; [11],less mRNA expression of CD36 and FABP1 than that of the High-fat diet group
same,relative mRNA expression level of FABP1 in the liver,[4]; [10],less mRNA expression of CD36 and FABP1 than that of the High-fat diet group
same,relative mRNA expression level of FABP1 in the liver,[4]; [11],less mRNA expression of CD36 and FABP1 than that of the High-fat diet group
same,ALT in the serum,[5]; [10],lower than those of the High-fat diet group
same,AST in the serum,[5]; [10],lower than those of the High-fat diet group
same,LDH in the serum,[5]; [10],lower than those of the High-fat diet group
same,ALT in the serum,[5]; [11],lower than those of the High-fat diet group
same,AST in the serum,[5]; [11],lower than those of the High-fat diet group
same,LDH in the serum,[5]; [11],lower than those of the High-fat diet group
same,relative mRNA expression level of Acta2 in the liver,[6]; [10],less mRNA expression of Acta2 than that of the High-fat diet group
same,relative mRNA expression level of Acta2 in the liver,[6]; [11],less mRNA expression of Acta2 than that of the High-fat diet group
same,weight gain,[7]; [12],ameliorate weight gain increase of mice resulting from the high-fat diet; also recorded: no longer increased greatly at and after the fourth week after providing lumichrome
same,weight gain,[7]; [11],ameliorate weight gain increase of mice resulting from the high-fat diet
same,grip strength (muscular endurance),[8]; HFD mice,did not cause a decrease in muscular endurance of mice
same,grip strength (muscular endurance),[8]; control diet mice,did not cause a decrease in muscular endurance of mice
same,lipid droplets size and accumulation in the liver,[9]; [12],smaller lipid droplets and less lipid droplets accumulation than those of the High-fat diet group; also recorded: significantly better than that in the HFD-lumichrome in low dose group
same,lipid droplets size and accumulation in the liver,[9]; [11],smaller lipid droplets and less lipid droplets accumulation than those of the High-fat diet group
